# Results as given in ChEMBL document CHEMBL1201862, “PubChem BioAssay data set” (2004).
#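 96-well plates; 48 h exposure; 5 concentrations. Endpoints by linear interpolation between flanking doses. Not reached: highest tested concentration assigned. GI50: concentration for 50% inhibition of growth.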 Calls of active or inactive are those of the source. Cut-off read from the data, not from the text of the source: active = GI50 up to about 1.1 µM and inactive = higher.
# Key:
# Test in all cases: inhibition of tumour cell growth, NCI panel, 48 h
# 786-0 = system: 786-0
# A549 = system: A549
# BT-549 = system: BT-549
# CAKI-1 = system: CAKI-1
# CCRF-CEM = system: CCRF-CEM
# COLO 205 = system: COLO 205
# DU-145 = system: DU-145
# EKVX = system: EKVX
# HCC 2998 = system: HCC 2998
# HCT-15 = system: HCT-15
# HOP-62 = system: HOP-62
# HOP-92 = system: HOP-92
# HT-29 = system: HT-29
# IGROV-1 = system: IGROV-1
# KM12 = system: KM12
# LOX IMVI = system: LOX IMVI
# M14 = system: M14
# MCF7 = system: MCF7
# MDA-MB-231 = system: MDA-MB-231
# MDA-MB-435 = system: MDA-MB-435
# MDA-N = system: MDA-N
# MOLT-4 = system: MOLT-4
# Malme-3M = system: Malme-3M
# NCI-H23 = system: NCI-H23
# NCI/ADR-RES = system: NCI/ADR-RES
# OVCAR-4 = system: OVCAR-4
# OVCAR-5 = system: OVCAR-5
# OVCAR-8 = system: OVCAR-8
# PC-3 = system: PC-3
# RPMI-8226 = system: RPMI-8226
# SF-539 = system: SF-539
# SK-MEL-28 = system: SK-MEL-28
# SK-MEL-2 = system: SK-MEL-2
# SK-MEL-5 = system: SK-MEL-5
# SK-OV-3 = system: SK-OV-3
# SN12C = system: SN12C
# SNB-75 = system: SNB-75
# SR = system: SR
# SW-620 = system: SW-620
# T47D = system: T47D
# TK-10 = system: TK-10
# U-251 = system: U-251
# UACC-257 = system: UACC-257
# UACC-62 = system: UACC-62
# ACHN = system: ACHN
# HCT-116 = system: HCT-116
# HL-60 = system: HL-60
# Hs-578T = system: Hs-578T
# K562 = system: K562
# NCI-H226 = system: NCI-H226
# NCI-H460 = system: NCI-H460
# NCI-H522 = system: NCI-H522
# OVCAR-3 = system: OVCAR-3
# RXF 393 = system: RXF 393
# SF-268 = system: SF-268
# SF-295 = system: SF-295
# SNB-19 = system: SNB-19
# UO-31 = system: UO-31
# A498 = system: A498
structure (smiles),measurement,setting,value
CCOC(=O)CCCOc1cc(-c2ccccc2F)nc2cc3c(cc12)OCO3,GI50,786-0,> 100 µM (inactive)
same,GI50,A549,> 100 µM (inactive)
same,GI50,BT-549,19.9 µM (inactive)
same,GI50,CAKI-1,> 100 µM (inactive)
same,GI50,CCRF-CEM,30.8 µM (inactive)
same,GI50,COLO 205,> 100 µM (inactive)
same,GI50,DU-145,> 100 µM (inactive)
same,GI50,EKVX,40.6 µM (inactive)
same,GI50,HCC 2998,5.82 µM (inactive)
same,GI50,HCT-15,3.29 µM
same,GI50,HOP-62,> 100 µM (inactive)
same,GI50,HOP-92,> 100 µM (inactive)
same,GI50,HT-29,43.7 µM (inactive)
same,GI50,IGROV-1,24.6 µM (inactive)
same,GI50,KM12,61.9 µM (inactive)
same,GI50,LOX IMVI,> 100 µM (inactive)
same,GI50,M14,53 µM (inactive)
same,GI50,MCF7,> 100 µM (inactive)
same,GI50,MDA-MB-231,> 100 µM (inactive)
same,GI50,MDA-MB-435,53.6 µM (inactive)
same,GI50,MDA-N,88.7 µM (inactive)
same,GI50,MOLT-4,27.3 µM (inactive)
same,GI50,Malme-3M,74.1 µM (inactive)
same,GI50,NCI-H23,46.6 µM (inactive)
same,GI50,NCI/ADR-RES,46.8 µM (inactive)
same,GI50,OVCAR-4,3.71 µM (inactive)
same,GI50,OVCAR-5,> 100 µM (inactive)
same,GI50,OVCAR-8,> 100 µM (inactive)
same,GI50,PC-3,29.6 µM (inactive)
same,GI50,RPMI-8226,28.4 µM (inactive)
same,GI50,SF-539,> 100 µM (inactive)
same,GI50,SK-MEL-28,73.5 µM (inactive)
same,GI50,SK-MEL-2,> 100 µM (inactive)
same,GI50,SK-MEL-5,57.7 µM (inactive)
same,GI50,SK-OV-3,> 100 µM (inactive)
same,GI50,SN12C,> 100 µM (inactive)
same,GI50,SNB-75,40.9 µM (inactive)
same,GI50,SR,32 µM (inactive)
same,GI50,SW-620,> 100 µM (inactive)
same,GI50,T47D,25.5 µM (inactive)
same,GI50,TK-10,> 100 µM (inactive)
same,GI50,U-251,95.9 µM (inactive)
same,GI50,UACC-257,70.3 µM (inactive)
same,GI50,UACC-62,84.9 µM (inactive)
C/C=C(/C)C(=O)O[C@@H]1c2c(C)coc2C[C@H]2CC[C@H](O)[C@H](C)[C@]21C,GI50,ACHN,36.9 µM (inactive)
same,GI50,CAKI-1,> 100 µM (inactive)
same,GI50,CCRF-CEM,36.7 µM (inactive)
same,GI50,COLO 205,> 100 µM (inactive)
same,GI50,DU-145,> 100 µM (inactive)
same,GI50,EKVX,> 100 µM (inactive)
same,GI50,HCC 2998,> 100 µM (inactive)
same,GI50,HCT-116,31.6 µM (inactive)
same,GI50,HCT-15,78.5 µM
same,GI50,HL-60,34.5 µM (inactive)
same,GI50,HOP-62,> 100 µM (inactive)
same,GI50,HOP-92,74.8 µM (inactive)
same,GI50,HT-29,47.1 µM (inactive)
same,GI50,Hs-578T,64.7 µM (inactive)
same,GI50,IGROV-1,43.3 µM (inactive)
same,GI50,K562,38 µM (inactive)
same,GI50,KM12,46.2 µM (inactive)
same,GI50,LOX IMVI,49.4 µM (inactive)
same,GI50,M14,54.1 µM (inactive)
same,GI50,MCF7,26.3 µM (inactive)
same,GI50,MDA-MB-231,71.6 µM (inactive)
same,GI50,MDA-MB-435,38.5 µM (inactive)
same,GI50,MDA-N,50 µM (inactive)
same,GI50,MOLT-4,30.6 µM (inactive)
same,GI50,Malme-3M,26.9 µM (inactive)
same,GI50,NCI-H226,52.1 µM (inactive)
same,GI50,NCI-H23,34.2 µM (inactive)
same,GI50,NCI-H460,> 100 µM (inactive)
same,GI50,NCI-H522,60 µM (inactive)
same,GI50,NCI/ADR-RES,23.1 µM (inactive)
same,GI50,OVCAR-3,27 µM (inactive)
same,GI50,OVCAR-4,39.4 µM (inactive)
same,GI50,OVCAR-5,> 100 µM (inactive)
same,GI50,OVCAR-8,42.5 µM (inactive)
same,GI50,PC-3,97.7 µM (inactive)
same,GI50,RPMI-8226,31.3 µM (inactive)
same,GI50,RXF 393,27 µM (inactive)
same,GI50,SF-268,70.8 µM (inactive)
same,GI50,SF-295,> 100 µM (inactive)
same,GI50,SF-539,31.9 µM (inactive)
same,GI50,SK-MEL-28,44.8 µM (inactive)
same,GI50,SK-MEL-5,35.6 µM (inactive)
same,GI50,SK-OV-3,> 100 µM (inactive)
same,GI50,SN12C,31.3 µM (inactive)
same,GI50,SNB-19,> 100 µM (inactive)
same,GI50,SR,49.9 µM (inactive)
same,GI50,SW-620,24 µM (inactive)
same,GI50,T47D,68.9 µM (inactive)
same,GI50,TK-10,64.6 µM (inactive)
same,GI50,U-251,> 100 µM (inactive)
same,GI50,UACC-257,34.2 µM (inactive)
same,GI50,UACC-62,43.8 µM (inactive)
same,GI50,UO-31,68.2 µM (inactive)
Oc1c(Cl)c(Cl)c(O)c2c1CCCC2,GI50,786-0,1.93 µM (inactive)
same,GI50,A498,19.1 µM (inactive)
same,GI50,A549,21 µM (inactive)
same,GI50,ACHN,1.75 µM (inactive)
same,GI50,BT-549,14.8 µM (inactive)
same,GI50,CCRF-CEM,2.08 µM (inactive)
same,GI50,COLO 205,1.83 µM (inactive)
same,GI50,EKVX,7.85 µM (inactive)
same,GI50,HCC 2998,14.3 µM (inactive)
same,GI50,HCT-116,1.51 µM (inactive)
same,GI50,HCT-15,12.9 µM
same,GI50,HOP-62,25.4 µM (inactive)
same,GI50,HOP-92,1.85 µM (inactive)
same,GI50,HT-29,19.1 µM (inactive)
same,GI50,Hs-578T,14.6 µM (inactive)
same,GI50,KM12,12.4 µM (inactive)
same,GI50,LOX IMVI,3.48 µM (inactive)
same,GI50,M14,15.5 µM (inactive)
same,GI50,MCF7,2.13 µM (inactive)
same,GI50,MDA-MB-231,15.4 µM (inactive)
same,GI50,MDA-MB-435,16.4 µM (inactive)
same,GI50,MDA-N,14.3 µM (inactive)
same,GI50,Malme-3M,2.84 µM (inactive)
same,GI50,NCI-H226,1.88 µM (inactive)
same,GI50,NCI-H23,18.4 µM (inactive)
same,GI50,NCI-H460,15.1 µM (inactive)
same,GI50,NCI-H522,1.97 µM (inactive)
same,GI50,NCI/ADR-RES,15.5 µM (inactive)
same,GI50,OVCAR-8,18.7 µM (inactive)
same,GI50,PC-3,17.7 µM (inactive)
same,GI50,RPMI-8226,2.72 µM (inactive)
same,GI50,RXF 393,10.6 µM (inactive)
same,GI50,SF-268,11.6 µM (inactive)
same,GI50,SF-295,18.5 µM (inactive)
same,GI50,SF-539,8.69 µM (inactive)
same,GI50,SK-MEL-28,13.6 µM (inactive)
same,GI50,SK-MEL-2,19.7 µM (inactive)
same,GI50,SK-MEL-5,13 µM (inactive)
same,GI50,SK-OV-3,14.2 µM (inactive)
same,GI50,SN12C,14.7 µM (inactive)
same,GI50,SNB-19,16 µM (inactive)
same,GI50,SW-620,1.99 µM (inactive)
same,GI50,TK-10,3.37 µM (inactive)
same,GI50,U-251,17.5 µM (inactive)
same,GI50,UACC-257,16.8 µM (inactive)
same,GI50,UACC-62,13.4 µM (inactive)
same,GI50,UO-31,2.36 µM (inactive)
